Source: patent US20230128402A1 (The Trustees of Princeton University, priority 2020, published 2023)

Key:
ALDH1a3 [1] = molecular target: T1, ALDH1a3 (Homo sapiens, UniProt P47895); assay: ALDEFLUOR assay in SUM159-M1a-Aldh1a3 cells; type: cell-based; set-up: lentiviral vectors containing either the vector backbone or full-length human Aldh1a3; expressed in transfected cells; host or cells: SUM159-M1a human breast cancer cells, lentiviral pLex vector; details: for Inhi-bitory Activity at 100 nM (%) / Percent of Cells Positive for ALDEFLUOR ™ at 100 nM: SUM159-M1a-Aldh1a3 cells, compound at 100 nM
T1 sequence (P47895 1-512): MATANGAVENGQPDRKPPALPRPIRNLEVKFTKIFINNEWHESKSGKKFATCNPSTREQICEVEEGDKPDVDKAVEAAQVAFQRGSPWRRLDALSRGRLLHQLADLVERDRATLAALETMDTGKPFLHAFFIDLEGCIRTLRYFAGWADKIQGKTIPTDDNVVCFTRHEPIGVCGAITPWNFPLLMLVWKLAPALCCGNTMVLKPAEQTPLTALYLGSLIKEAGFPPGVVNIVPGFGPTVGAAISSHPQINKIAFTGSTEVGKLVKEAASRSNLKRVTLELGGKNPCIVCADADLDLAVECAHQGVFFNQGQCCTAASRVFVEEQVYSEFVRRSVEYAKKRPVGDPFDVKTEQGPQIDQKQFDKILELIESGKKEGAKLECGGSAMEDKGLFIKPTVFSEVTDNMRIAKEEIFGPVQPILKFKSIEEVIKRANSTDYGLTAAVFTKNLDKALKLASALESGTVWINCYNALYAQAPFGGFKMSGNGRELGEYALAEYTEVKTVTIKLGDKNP
Description: Cells were counted, centrifuged and resuspended at 1,000,000 cells/mL in ALDEFLUOR™ buffer (Stemcell Technologies). ALDEFLUOR™ substrate (Stemcell Technologies, 1:200) and test compound or 1 mM DEAB were added to cell suspension and incubated at 37° C. for 45 minutes with vortexing every 15 minutes. Cells were centrifuged and resuspended in ALDEFLUOR™ buffer with DAPI at 5 μg/mL. Samples were analyzed with the BD LSR2 flow cytometry platform. Gating was performed using DEAB as a negative control.
Gating for background fluorescence was performed using 1 millimolar DEAB as a negative control.
The [inh-min]threshold was set at the lower bound of two standard deviations of control samples, while the IC50 threshold was set at 50% of the average of control samples.
An ALDEFLUOR™ assay was also used to assess the relative activity of several compounds described herein against SUM159-M1a-Aldh1a3 cells.

mALDH1a3 = molecular target: T2, mALDH1a3 (Mus musculus, UniProt Q9JHW9); assay: Aldh1a3 enzyme inhibition assay, recombinant mALDH1a3; type: biochemical; details: resorufin fluorescence, 20° C.
T2 construct: made in house; host or cells: E. coli BL21-DE3, pET-Aldh1a3
T2 sequence (Q9JHW9 1-512): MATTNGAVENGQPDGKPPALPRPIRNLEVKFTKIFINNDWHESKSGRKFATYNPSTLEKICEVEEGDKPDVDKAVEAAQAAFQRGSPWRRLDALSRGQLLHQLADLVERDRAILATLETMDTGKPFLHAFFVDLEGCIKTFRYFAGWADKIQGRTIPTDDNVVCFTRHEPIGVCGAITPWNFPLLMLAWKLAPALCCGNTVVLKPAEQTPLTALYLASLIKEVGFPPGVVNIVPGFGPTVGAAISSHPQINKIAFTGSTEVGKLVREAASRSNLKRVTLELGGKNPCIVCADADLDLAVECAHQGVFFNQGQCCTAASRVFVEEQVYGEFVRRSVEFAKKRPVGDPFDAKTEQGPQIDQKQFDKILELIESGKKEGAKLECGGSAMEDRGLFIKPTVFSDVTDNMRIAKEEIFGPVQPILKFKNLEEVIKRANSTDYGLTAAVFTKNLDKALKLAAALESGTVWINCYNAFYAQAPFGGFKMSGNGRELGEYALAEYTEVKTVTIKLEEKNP
Text: (§1) Recombinant enzyme and inhibitor added immediately before assay. Reaction rate measured by resorufin fluorescence.

ALDH1a3 [2] = molecular target: T1, ALDH1a3; assay: Aldh1a3 enzyme inhibition assay, recombinant hALDH1a3; type: biochemical; set-up: made in house; host or cells: E. coli BL21-DE3, pET-Aldh1a3; details: resorufin fluorescence, 20° C.
Text: as §1

relative potency, ALDEFLUOR activity (ALDH1a3 [1]; 10 nM, FIG. 6C)	IC50 (mALDH1a3) [µM]	IC50 (ALDH1a3 [2]) [µM]	Inhi-bitory Activity at 100 nM (%) (ALDH1a3 [1])	Percent of Cells Positive for ALDEFLUOR ™ at 100 nM (ALDH1a3 [1]) [%]	Compound	inhibition of ALDH1a3 activity (percentage of ALDEFLUOR-positive cells) (ALDH1a3 [1]; 100 nM, FIG. 6A)
					CCc1cnccc1C(=O)Nc1ccc2c(c1)CCC(=O)N2 [Compound 9, 3-ethyl-N-(2-oxo-3,4-dihydro-1H-quinolin-6-yl)pyridine-4-carboxamide]	high-affinity compounds for the inhibition of ALDH1a3 activity
nearly twice as potent as MBE 1.5	0.1 to 0.25	< 0.1			CC(C)Cc1cnccc1C(=O)Nc1cc2c(cc1F)NC(=O)CC2 [Compound 7]	
	> 5	> 5	0.60	76	Cc1ccc(C(=O)Nc2ccc3c(c2)CCC(=O)N3)cc1C [Compound 11]	
	> 5	> 5	11	68	O=C1CCc2cc(NCc3ccccc3)ccc2N1 [Compound 14]	
	1 to 5	> 5	42	45	Cc1ccccc1C(=O)Nc1ccc2c(c1)CCC(=O)N2 [Compound 13]	
	> 5	> 5	3.3	74	Cc1ccc(C(=O)Nc2ccc3c(c2)CCC(=O)N3)c(C)c1 [Compound 12]	
	> 5	> 5	29	55	Cc1cc(C(=O)Nc2cc3c(cc2F)NC(=O)CC3)ccn1 [Compound 16]	
	1 to 5	0.1 to 0.25			CCc1cnccc1C(=O)Nc1ccc2c(c1)CC1(CC1)C(=O)N2 [Compound 61, 3-ethyl-N-(2-oxospiro[1,4-dihydroquinoline-3,1′-cyclopropane]-6-yl)pyridine-4-carboxamide]	
	> 5	> 5			CC1(C)Cc2cc(Nc3ccc4cnccc4n3)ccc2NC1=O [Compound 95, 3,3-dimethyl-6-(1,6-naphthyridin-2-ylamino)-1,4-dihydroquinolin-2-one]	
	1 to 5	1 to 5	55	34	CCc1cnccc1CNc1cc2c(cc1F)NC(=O)CC2 [Compound 3]	
	> 5	> 5			CC1(C)CC(=O)Nc2ccc(Nc3nccc4ccccc34)cc21 [Compound 34, 6-(1-isoquinolylamino)-4,4-dimethyl-1,3-dihydroquinolin-2-one]	
	> 5	> 5			CC1(C)Cc2cc(Nc3c[nH]c4c(c3=O)CCCC4)ccc2NC1=O [Compound 135, 3,3-dimethyl-6-[(4-oxo-5,6,7,8-tetrahydro-1H-quinolin-3-yl)amino]-1,4-dihydroquinolin-2-one]	
	> 5	> 5			CC(C)=Cc1cnc(C)cc1C(=O)Nc1ccc2c(c1)CC(C)(C)C(=O)N2 [Compound 69]	
	0.25 to 1	0.1 to 0.25			CCCc1cnccc1C(=O)Nc1ccc2c(c1)CCC(=O)N2 [Compound 60, N-(2-oxo-3,4-dihydro-1H-quinolin-6-yl)-3-propyl-pyridine-4-carboxamide]	
	0.25 to 1	0.1 to 0.25			CCc1cnccc1C(=O)Nc1ccc2c(c1)CC(C)C(=O)N2 (centres unmarked) [Compound 63, 3-ethyl-N-(3-methyl-2-oxo-3,4-dihydro-1H-quinolin-6-yl)pyridine-4-carboxamide]	
	> 5	> 5			CCc1c[nH]c(=O)cc1C(=O)Nc1ccc2c(c1)CCC(=O)N2 [Compound 51, 5-ethyl-2-oxo-N-(2-oxo-3,4-dihydro-1H-quinolin-6-yl)-1H-pyridine-4-carboxamide]	
	> 5	> 5	2	75	O=C1CCc2cc(NCc3cc[nH]c3)c(F)cc2N1 [Compound 17]	

relative potency, ALDEFLUOR activity (ALDH1a3 [1]; 10 nM, FIG. 6C)	IC50 (mALDH1a3) [µM]	IC50 (ALDH1a3 [2]) [µM]	Inhi-bitory Activity at 100 nM (%) (ALDH1a3 [1])	Percent of Cells Positive for ALDEFLUOR ™ at 100 nM (ALDH1a3 [1]) [%]	Compound	inhibition of ALDH1a3 activity (percentage of ALDEFLUOR-positive cells) (ALDH1a3 [1]; 100 nM, FIG. 6A)
	> 5	> 5			COC(=O)c1ccc2ncc(Nc3ccc4c(c3)CC(C)(C)C(=O)N4)nc2c1 [Compound 120, methyl 3-[(3,3-dimethyl-2-oxo-1,4-dihydroquinolin-6-yl)amino]quinoxaline-6-carboxylate]	
	> 5	> 5			Cc1cc(C(=O)Nc2ccc3c(c2)CCC(=O)N3)ccn1 [Compound 24]	
	1 to 5	1 to 5			CC1(C)Cc2cc(Nc3nc4ccccc4[nH]3)ccc2NC1=O [Compound 98, 6-(1H-benzimidazol-2-ylamino)-3,3-dimethyl-1,4-dihydroquinolin-2-one]	
	0.25 to 1	1 to 5			CC1(C)Cc2cc(Nc3ncc4ccccc4n3)c(F)cc2NC1=O [Compound 108, 7-fluoro-3,3-dimethyl-6-(quinazolin-2-ylamino)-1,4-dihydroquinolin-2-one]	
	0.25 to 1	0.25 to 1			Cc1cc2ccccc2nc1Nc1ccc2c(c1)CC(C)(C)C(=O)N2 [Compound 134]	
	> 5	> 5			Cn1ccc2nc(Nc3ccc4c(c3)CC(C)(C)C(=O)N4)ccc21 [Compound 113, 3,3-dimethyl-6-[(1-methylpyrrolo[3,2-b]pyridin-5-yl)amino]-1,4-dihydroquinolin-2-one]	
	> 5	> 5			CC1(C)Cc2cc(NC3COc4ccccc4C3)ccc2NC1=O (centres unmarked) [Compound 105, 6-(chroman-3-ylamino)-3,3-dimethyl-1,4-dihydroquinolin-2-one]	
	> 5	> 5			N#Cc1ccc2nc(Nc3ccc4c(c3)CCC(=O)N4)ccc2c1 [Compound 88, 2-[(2-oxo-3,4-dihydro-1H-quinolin-6-yl)amino]quinoline-6-carbonitrile]	
	0.25 to 1	0.25 to 1			CC1(C)Cc2cc(Nc3nc4ccccc4o3)ccc2NC1=O [Compound 99, 6-(1,3-benzoxazol-2-ylamino)-3,3-dimethyl-1,4-dihydroquinolin-2-one]	
	> 5	> 5			CCc1cnccc1C(=O)N(C)c1ccc2c(c1)CCC(=O)N2 [Compound 27, 3-ethyl-N-methyl-N-(2-oxo-3,4-dihydro-1H-quinolin-6-yl)pyridine-4-carboxamide]	
	> 5	> 5			CCc1cnccc1C(=O)Nc1ccc2c(c1)NC(=O)CC2 [Compound 32]	
	> 5	> 5			N#Cc1cccc2ncc(Nc3ccc4c(c3)CCC(=O)N4)cc12 [Compound 100, 3-[(2-oxo-3,4-dihydro-1H-quinolin-6-yl)amino]quinoline-5-carbonitrile]	
	> 5	> 5			CCc1cnccc1C(=O)NCc1ccc2c(c1)CCC(=O)N2 [Compound 28, 3-ethyl-N-[(2-oxo-3,4-dihydro-1H-quinolin-6-yl)methyl]pyridine-4-carboxamide]	
	0.1 to 0.25	0.1 to 0.25			CCc1cnccc1/C=C/c1ccc2c(c1)CCC(=O)N2 [Compound 33, 6-[(E)-2-(3-ethyl-4-pyridyl)vinyl]-3,4-dihydro-1H-quinolin-2-one]	
	> 5	> 5			COCc1cnccc1C(=O)Nc1ccc2c(c1)CCC(=O)N2 [Compound 57, 3-(methoxymethyl)-N-(2-oxo-3,4-dihydro-1H-quinolin-6-yl)pyridine 4 carboxamide]	
	> 5	> 5			CCc1cnccc1C(=O)Nc1ccc2c(c1F)CCC(=O)N2 [Compound 85]	
